From ChEMBL document CHEMBL1124557, “Pentadienyl carboxamide derivatives as antagonists of platelet-activating factor” (J Med Chem, 1989)

Tests used:
Cavia porcellus [1] = assay: PAF-induced capillary permeability changes are studied in guinea pig test, after intravenous administration of the compound; assay type: functional; settings: read-out: ID50 (the source's name)
Cavia porcellus [2] = assay: PAF-induced capillary permeability changes are studied in guinea pig skin test, after peroral administration of the compound; assay type: functional; settings: po, read-out: ID50 (the source's name)
Cavia porcellus [3] = assay: Ability to prevent PAF-induced bronchoconstriction in guinea pig 6 hr following 50 mg/kg p.o. administration.; assay type: functional; settings: route oral
Rattus norvegicus [4] = assay: PAF-induced capillary permeability changes are studied in rat skin test, after intravenous administration of the compound; assay type: functional; settings: read-out: ID50 (the source's name)
[5] = biological target: Platelet-activating factor receptor (Cavia porcellus) (UniProt P21556); assay: Ability to prevent PAF-induced bronchoconstriction in guinea pig 2 hr after administration (50 mg/kg perorally); assay type: functional, organism-based
Cavia porcellus [6] = assay: Ability to prevent PAF-induced bronchoconstriction in guinea pig when administered at a dose of 1 mg/kg intravenously; assay type: functional; settings: route intravenous
[7] = biological target: Platelet-activating factor receptor (Cavia porcellus) (UniProt P21556); assay: Ability to prevent PAF-induced bronchoconstriction in guinea pig when administered intravenously; assay type: functional
Rattus norvegicus [8] = assay: PAF-induced capillary permeability changes are studied in rat skin test, after peroral administration of the compound; assay type: functional; settings: po, read-out: ID50 (the source's name)
Cavia porcellus [9] = assay: Inhibition of PAF-induced bronchoconstriction in guinea pig 2 hr after p.o. administration.; assay type: functional; settings: po, read-out: ID50 (the source's name)
Cavia porcellus [10] = assay: Inhibitory activity against bronchoconstriction in guinea pig 2 hr after peroral administration of compound; assay type: functional; settings: Lung, po, read-out: ID50 (the source's name)
Cavia porcellus [11] = assay: Ability to prevent PAF-induced bronchoconstriction in guinea pig 2 hr after administration of compound (50 mg/kg perorally); assay type: functional; settings: po, read-out: ID50 (the source's name)
Cavia porcellus [12] = assay: Ability to prevent PAF-induced bronchoconstriction in guinea pig when administered dose 0.5 mg/kg intravenously; assay type: functional; settings: route intravenous
Cavia porcellus [13] = assay: Ability to prevent PAF-induced bronchoconstriction in guinea pig when administered dose 1 mg/kg intravenously; assay type: functional; settings: route intravenous

Platelet-activating factor receptor (Cavia porcellus), sequence (P21556 whole entry): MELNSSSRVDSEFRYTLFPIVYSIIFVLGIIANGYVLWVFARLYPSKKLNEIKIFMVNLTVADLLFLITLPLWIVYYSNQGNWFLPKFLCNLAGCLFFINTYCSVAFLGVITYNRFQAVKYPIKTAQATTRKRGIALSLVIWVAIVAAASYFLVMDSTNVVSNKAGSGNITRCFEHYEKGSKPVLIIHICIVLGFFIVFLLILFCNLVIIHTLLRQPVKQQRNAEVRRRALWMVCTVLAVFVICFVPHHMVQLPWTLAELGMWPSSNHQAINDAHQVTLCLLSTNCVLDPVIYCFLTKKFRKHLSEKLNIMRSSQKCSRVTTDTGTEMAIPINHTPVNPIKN

For `Cc1nnc2n1-c1sc(CCC(=O)N3CCOCC3)cc1C(c1ccccc1Cl)=NC2` [APAFANT], the ED50 (Cavia porcellus [1]) was 2.5 mg/kg, the ED50 (Cavia porcellus [2]) was 35 mg/kg and the inhibition in vivo at 50 mg/kg (Cavia porcellus [3]) was 100%. The ED50 (Rattus norvegicus [4]) was 0.64 mg/kg, the inhibition [5] was 100% and the inhibition in vivo at 1 mg/kg (Cavia porcellus [6]) was 99%. The ID50 [7] was 0.03 mg/kg, the ED50 (Rattus norvegicus [8]) was 45 mg/kg and the ED50 (Cavia porcellus [9]) was 1 mg/kg.
`COc1ccc(C(=C/C=C/C(=O)N[C@H](C)CCCc2cccnc2)c2ccc(OC)cc2)cc1` was tested, and the ED50 (Cavia porcellus [1]) was 15 mg/kg, the ED50 (Cavia porcellus [2]) was 75 mg/kg and the inhibition in vivo at 50 mg/kg (Cavia porcellus [3]) was 93%. It also gave an ED50 (Rattus norvegicus [4]) of 2 mg/kg, an inhibition [5] of 98% and an inhibition in vivo at 1 mg/kg (Cavia porcellus [6]) of 98%. For the same molecule, the ID50 [7] was 0.25 mg/kg, the ED50 (Cavia porcellus [10]) was 4 mg/kg and the ED50 (Rattus norvegicus [8]) was 25 mg/kg.
Molecule `O=C(C/C=C/C=C(c1ccccc1)c1ccccc1)NCCCCc1cccnc1` has an ED50 (Cavia porcellus [11]) of 0.62 mg/kg, an inhibition [5] of 35% and an inhibition in vivo at 0.5 mg/kg (Cavia porcellus [12]) of 60%.
`CCCCCC/C(=C\C=C\C(=O)N[C@H](C)CCCc1cccnc1)c1ccc(OC)cc1` gave an inhibition in vivo at 50 mg/kg (Cavia porcellus [3]) of 14%, an inhibition [5] of 96% and an ID50 [7] of 0.07 mg/kg. The ED50 (Cavia porcellus [9]) was 8 mg/kg and the inhibition in vivo at 1 mg/kg (Cavia porcellus [13]) was 100%.
Work on `CCCCC/C(=C\C=C\C(=O)N[C@H](C)CCCc1cccnc1)c1ccc(OC)cc1` yielded an ED50 (Cavia porcellus [1]) of 3 mg/kg, an ED50 (Cavia porcellus [2]) of 65 mg/kg and an inhibition in vivo at 50 mg/kg (Cavia porcellus [3]) of 71%. It also gave an ED50 (Rattus norvegicus [4]) of 1.7 mg/kg, an inhibition [5] of 100% and an inhibition in vivo at 1 mg/kg (Cavia porcellus [6]) of 99%. For the same molecule, the ID50 [7] was 0.05 mg/kg, the ED50 (Cavia porcellus [10]) was 16 mg/kg and the ED50 (Rattus norvegicus [8]) was 70 mg/kg.
